Test results reported in US12582652B2, “3-(ethoxydifluoromethyl)-6-(5-fluoro-6-(2,2,2-trifluoroethoxy)pyridin-3-yl)-[1,2,4]triazolo[4,3-a]pyrazine as an ion channel modulator” (Praxis Precision Medicines, Inc., priority 2022, dated 2026).
pIC50: −log10 of the molar value. “Also recorded” adds a separate entry of the source.

Experiments:
human NaV1.6 = target: T1, human NaV1.6 (Homo sapiens, UniProt Q9UQD0); assay: Peak INa use-dependent block (UDB-10 Hz), PatchXpress patch clamp; assay type: cell-based
T1 construct: stably expressing either human NaV1.6 (NP_055006); expressed in transfected cells

hNaV1.6-N1768D = target: T2, hNaV1.6-N1768D (Homo sapiens, UniProt Q9UQD0, N1768D); assay: Persistent INa expressed by DEE mutant channel, patch clamp; assay type: cell-based; conditions: hNaV1.6-N1768D DEE mutant
T2 construct: expressed in transfected cells

hNaV1.1 = hNaV1.1 (Homo sapiens, UniProt P35498); assay: Persistent INa, patch clamp; assay type: cell-based
Description: (§1) Late (persistent) current Block: The inhibition of ATX-II activated late current was measured using a 200 ms voltage step to 0 mV. Protocols used low stimulation rates (about 0.1 Hz) and negative potentials (−120 mV) to keep channels in closed (resting) states. Pharmacology was measured as the mean INa during the final 20 ms of the step to 0 mV and leak subtraction was not used.

hNaV1.2 = hNaV1.2 (Homo sapiens, UniProt Q99250); assay: Persistent INa, patch clamp; assay type: cell-based
Description: as §1

hNaV1.5 = hNaV1.5 (Homo sapiens, UniProt Q14524); assay: Persistent INa, patch clamp; assay type: cell-based
Description: as §1

male CD-1 mice = assay: Maximal electroshock induced seizure (MES) test; assay type: in vivo, mouse
Description: Food and water were available ad libitum.
VPA was prepared in saline (Vehicle 1). All solutions were protected from light. All compounds and vehicles were dosed at 10 ml/kg.
The MES test was carried out over two days with 6 of 12 mice from each treatment group being tested on each day. Mice were brought to the test room at least one hour before the start of the experiment.
A Grass S88x (Grass Technologies of Astro-Med, Inc., West Warwick, RI) Stimulus Isolation Unit (A385, WPI Inc., USA) was set to deliver a 50 mA square-wave stimulus, with a 0.8 second duration, a pulse width of 10 msec, and a frequency of 50 Hz. A pair of custom stainless steel electrodes were soaked in 0.2% Agar, and then the subject received bilateral transauricular stimulation through ear-clip electrodes. During the stimulation, mice were manually restrained. They were then released into the observation cage for convulsion observation for 60 seconds immediately after stimulation. Each mouse was observed continuously by individuals blinded to treatment conditions and results were recorded.
Anti-seizure assessment endpoints were: (1) latency of hindlimb tonic flexion; (2) latency of hindlimb tonic extension; (3) total #hindlimb tonic flexions; (4) total #hindlimb tonic extensions; (5) latency to death; and (6) mortality rate
From these fitted curves, ED50 and EC50 values were calculated.

[1] = tested on: Scn8a^N1768D/+ transgenic mouse; assay: Audiogenic induced seizures in Scn8a N1768D/+ mouse model; assay type: in vivo
Description: Both male and female N1768D (D/+) mice, 8-12 weeks old, were used in the study. Compound 1 was administered orally (p.o.) at three doses (1 mg/kg, 3 mg/kg, 10 mg/kg) and also vehicle 1 hour prior to testing. The mice were randomized such that at the completion of the study each individual mouse had been evaluated at each test dose of Compound 1 and vehicle. A minimum of 3 days was allowed to elapse before retesting the mice. At the time of testing, mice were taken from their home cage and transferred to a clean test cage located in a separate testing room where they were allowed to acclimate for about 20 seconds before the onset of the acoustic stimulus. To induce audiogenic seizures, a 15 kHz signal was generated using Tone Generator software (NCH Software, Inc.), amplified using a Kinter K3118 stereo amplifier (Kinter USA), and converted to sound using a small 3-watt speaker lowered into the testing chamber. The stimulus was applied for 30 seconds unless a seizure was detected before the 30-second time point, in which case the audiogenic stimulus was terminated. Videos of the event were recorded using a laptop webcam. On the final day of testing, brains and plasma were collected from the D/+ mice immediately after audiogenic seizure testing to determine concentrations of Compound 1. A separate cohort of 8 age-matched WT mice were also included (n=2/dose level) to achieve a sample size of n=4 for PK for each dose level. Brain and plasma specimens were submitted for bioanalytical analysis.

[2] = tested on: heterozygous Kcnc1 R320H mice; assay: Pentylenetetrazole (PTZ) induced seizure, Kcnc1 model; assay type: in vivo, mouse
Description: Pentylenetetrazole (PTZ), a GABA receptor antagonist, can be used to create a common, chemically-induced seizure model, a model of generalized seizure.
Mice were acclimated to experimental area for minimum 30 minutes before experimentation. All experiments were performed between 10:00 am and 12:30 pm. The treatment compounds and PTZ were always prepared fresh.
Mice were randomly assigned either to different doses of Compound 1 (10 mg/kg, 1 mg/kg, or 0.1 mg/kg) or a vehicle control containing 0.5% methylcellulose and 0.2% tween 80, and dosed via oral gavage (p.o). Compound 1 and the vehicle control were administered 60 minutes before the injection of PTZ.
PTZ (100 mg/kg) was dissolved in saline and administered subcutaneously (s.c) to the experimental mice. The latency to full tonic-clonic seizure with hind limb extension was measured. The animals were sacrificed either at the time of hind limb extension or 40 minutes after PTZ administration if no hind limb extension was recorded.
Data were analyzed using a Mantel-Cox log-rank test. Brain tissue and plasma were collected from some mice for each dose of Compound 1 at the PTZ endpoint for PK analysis.

healthy participants = assay: 2-part Phase 1 trial (28 days; OXC combination): safety and tolerability; assay type: in vivo, human
Description: This was a 2-part randomized, placebo-controlled Phase 1 trial in healthy participants aged 18-55 years. […] PD effects were examined on quantitative EEG (qEEG; resting and vigilant conditions) and stimulated EEG using auditory steady state response (ASSR). A total of 48 participants were enrolled; Part A, n=30; Part B, n=18.

[3] = Preliminary exposure data from first 12 participants (Example 9 study); assay type: in vivo, human
[4] = Compound 1 human pharmacokinetics as stated in trial rationale; assay type: in vivo; conditions: predicted from current knowledge of pharmacokinetics

T1 sequence (Q9UQD0 whole entry): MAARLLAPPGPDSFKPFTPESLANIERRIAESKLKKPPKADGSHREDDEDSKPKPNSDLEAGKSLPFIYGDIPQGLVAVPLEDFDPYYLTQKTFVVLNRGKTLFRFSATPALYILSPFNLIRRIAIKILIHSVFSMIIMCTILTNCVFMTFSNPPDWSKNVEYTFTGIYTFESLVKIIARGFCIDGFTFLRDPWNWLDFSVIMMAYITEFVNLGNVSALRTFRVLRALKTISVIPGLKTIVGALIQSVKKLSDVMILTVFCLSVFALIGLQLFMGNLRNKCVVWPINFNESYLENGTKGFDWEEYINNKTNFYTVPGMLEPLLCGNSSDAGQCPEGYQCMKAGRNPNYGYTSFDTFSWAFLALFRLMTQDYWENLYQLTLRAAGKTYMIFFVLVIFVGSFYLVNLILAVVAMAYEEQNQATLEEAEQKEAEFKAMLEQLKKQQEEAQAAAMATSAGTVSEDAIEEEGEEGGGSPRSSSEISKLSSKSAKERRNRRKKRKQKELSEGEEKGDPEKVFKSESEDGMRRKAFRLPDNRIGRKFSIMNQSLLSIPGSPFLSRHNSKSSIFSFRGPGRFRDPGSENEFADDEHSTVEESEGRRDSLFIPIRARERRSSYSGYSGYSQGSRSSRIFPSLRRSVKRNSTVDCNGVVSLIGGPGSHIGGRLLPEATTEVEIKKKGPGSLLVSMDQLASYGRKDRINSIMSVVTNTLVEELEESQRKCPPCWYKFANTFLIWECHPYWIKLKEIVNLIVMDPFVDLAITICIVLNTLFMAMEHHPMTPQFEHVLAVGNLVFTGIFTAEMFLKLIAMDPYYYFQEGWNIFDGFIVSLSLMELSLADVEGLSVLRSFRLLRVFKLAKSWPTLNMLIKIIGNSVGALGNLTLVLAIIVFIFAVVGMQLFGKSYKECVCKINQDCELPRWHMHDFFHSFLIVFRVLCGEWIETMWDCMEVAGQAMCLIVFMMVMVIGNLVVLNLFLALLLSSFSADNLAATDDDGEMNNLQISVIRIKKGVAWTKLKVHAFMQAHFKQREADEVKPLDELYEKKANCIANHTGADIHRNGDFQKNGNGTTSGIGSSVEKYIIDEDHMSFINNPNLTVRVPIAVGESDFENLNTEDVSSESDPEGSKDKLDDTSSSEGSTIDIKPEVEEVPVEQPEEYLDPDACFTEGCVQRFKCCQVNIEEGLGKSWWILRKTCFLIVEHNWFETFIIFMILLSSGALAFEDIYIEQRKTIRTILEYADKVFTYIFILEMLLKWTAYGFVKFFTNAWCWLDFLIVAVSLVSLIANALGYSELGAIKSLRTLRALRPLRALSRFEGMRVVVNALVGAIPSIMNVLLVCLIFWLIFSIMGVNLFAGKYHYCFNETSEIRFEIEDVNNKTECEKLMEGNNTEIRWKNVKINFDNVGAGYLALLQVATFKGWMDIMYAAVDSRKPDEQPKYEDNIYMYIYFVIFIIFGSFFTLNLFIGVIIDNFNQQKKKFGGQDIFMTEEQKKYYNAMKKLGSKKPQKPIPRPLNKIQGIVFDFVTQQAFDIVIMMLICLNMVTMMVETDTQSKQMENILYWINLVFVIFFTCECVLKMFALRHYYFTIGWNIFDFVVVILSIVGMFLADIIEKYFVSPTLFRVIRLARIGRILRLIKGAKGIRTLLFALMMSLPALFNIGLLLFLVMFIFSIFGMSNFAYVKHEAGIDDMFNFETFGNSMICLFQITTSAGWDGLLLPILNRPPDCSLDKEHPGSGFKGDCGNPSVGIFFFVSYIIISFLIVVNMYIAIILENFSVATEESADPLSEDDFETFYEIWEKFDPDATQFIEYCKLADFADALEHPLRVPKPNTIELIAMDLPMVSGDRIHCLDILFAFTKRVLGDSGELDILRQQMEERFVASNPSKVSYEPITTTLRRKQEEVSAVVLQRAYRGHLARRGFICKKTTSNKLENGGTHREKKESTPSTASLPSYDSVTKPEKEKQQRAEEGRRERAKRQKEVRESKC
T2 sequence (Q9UQD0 whole entry N1768D): as the sequence (Q9UQD0 whole entry) above, with N1768D counted along it
hNaV1.5, sequence (Q14524 1-2015 isoform Q14524-2): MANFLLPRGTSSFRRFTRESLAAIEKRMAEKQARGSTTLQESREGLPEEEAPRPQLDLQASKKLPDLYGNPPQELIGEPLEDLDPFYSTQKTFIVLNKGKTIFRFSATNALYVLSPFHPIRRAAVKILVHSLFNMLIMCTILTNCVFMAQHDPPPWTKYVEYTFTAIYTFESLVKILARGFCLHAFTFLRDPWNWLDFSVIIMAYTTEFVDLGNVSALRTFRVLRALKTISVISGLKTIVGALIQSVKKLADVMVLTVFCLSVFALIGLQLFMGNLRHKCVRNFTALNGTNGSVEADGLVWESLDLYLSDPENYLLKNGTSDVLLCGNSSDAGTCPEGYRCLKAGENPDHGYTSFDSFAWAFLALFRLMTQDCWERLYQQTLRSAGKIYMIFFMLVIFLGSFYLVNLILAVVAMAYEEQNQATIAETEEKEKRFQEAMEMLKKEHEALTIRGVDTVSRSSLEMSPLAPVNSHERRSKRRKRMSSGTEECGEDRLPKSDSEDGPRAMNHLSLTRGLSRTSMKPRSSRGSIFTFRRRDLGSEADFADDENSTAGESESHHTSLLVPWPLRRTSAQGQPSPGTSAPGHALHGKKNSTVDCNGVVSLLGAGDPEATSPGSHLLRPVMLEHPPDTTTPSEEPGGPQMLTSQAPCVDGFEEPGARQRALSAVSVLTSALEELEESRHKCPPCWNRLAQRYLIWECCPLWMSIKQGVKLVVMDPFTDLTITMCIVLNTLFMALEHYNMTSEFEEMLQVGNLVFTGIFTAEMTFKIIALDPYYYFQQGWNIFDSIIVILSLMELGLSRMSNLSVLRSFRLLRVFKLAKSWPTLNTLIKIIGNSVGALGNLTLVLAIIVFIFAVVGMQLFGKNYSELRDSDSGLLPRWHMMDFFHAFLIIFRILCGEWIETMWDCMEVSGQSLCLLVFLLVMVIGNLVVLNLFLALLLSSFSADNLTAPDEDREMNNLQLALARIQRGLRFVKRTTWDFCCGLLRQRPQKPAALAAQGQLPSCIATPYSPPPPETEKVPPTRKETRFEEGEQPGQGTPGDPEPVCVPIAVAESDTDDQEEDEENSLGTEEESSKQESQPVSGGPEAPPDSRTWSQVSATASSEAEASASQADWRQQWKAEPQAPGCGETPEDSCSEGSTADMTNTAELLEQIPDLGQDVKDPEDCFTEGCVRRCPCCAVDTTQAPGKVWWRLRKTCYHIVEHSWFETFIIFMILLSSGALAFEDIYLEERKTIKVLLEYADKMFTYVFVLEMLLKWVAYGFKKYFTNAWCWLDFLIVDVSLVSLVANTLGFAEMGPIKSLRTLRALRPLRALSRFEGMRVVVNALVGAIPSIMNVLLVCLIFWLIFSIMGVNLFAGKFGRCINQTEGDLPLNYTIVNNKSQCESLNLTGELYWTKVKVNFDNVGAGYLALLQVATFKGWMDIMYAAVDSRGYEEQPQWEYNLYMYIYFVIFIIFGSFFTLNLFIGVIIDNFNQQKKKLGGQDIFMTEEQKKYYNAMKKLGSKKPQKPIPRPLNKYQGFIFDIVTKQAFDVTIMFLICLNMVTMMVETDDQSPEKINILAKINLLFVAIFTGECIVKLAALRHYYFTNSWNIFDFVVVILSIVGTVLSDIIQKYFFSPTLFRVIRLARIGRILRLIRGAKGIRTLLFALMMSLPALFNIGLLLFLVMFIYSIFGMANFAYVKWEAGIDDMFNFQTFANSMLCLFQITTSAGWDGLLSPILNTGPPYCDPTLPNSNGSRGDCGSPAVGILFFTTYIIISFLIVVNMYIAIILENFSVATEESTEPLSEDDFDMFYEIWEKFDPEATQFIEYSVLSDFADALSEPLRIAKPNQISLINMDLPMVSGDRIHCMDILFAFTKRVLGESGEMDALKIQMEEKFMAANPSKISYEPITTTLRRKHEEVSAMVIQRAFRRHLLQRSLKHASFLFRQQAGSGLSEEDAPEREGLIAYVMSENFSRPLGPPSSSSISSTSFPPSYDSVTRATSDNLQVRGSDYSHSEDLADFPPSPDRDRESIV

## CCOC(F)(F)c1nnc2cnc(-c3cnc(OCC(F)(F)F)c(F)c3)cn12 [Compound 1, 3-(ethoxydifluoromethyl)-6-(5-fluoro-6-(2,2,2-trifluoroethoxy)pyridin-3-yl)-[1,2,4]triazolo[4,3-a]pyrazine]
Human NaV1.6; hNaV1.6
  Ratio to Peak INa (TB) (UDB-10 Hz): 31
  Ratio to Pers. INa (Peak INa UDB-10 Hz / persistent INa): 2
Human NaV1.6; hNaV1.6, 10 Hz
  pIC50: 6.57
  Peak INa UDB-10 Hz maximum inhibition: 75%
  use-dependent block at stimulation frequency of 10 Hz: concentration dependent inhibition
Human NaV1.6; hNaV1.6, 10 Hz, 30 Hz or 50 Hz
  use-dependent block at increased frequencies: significantly greater compared with CBZ
hNaV1.6-N1768D
  pIC50: 7.12
hNaV1.1
  pIC50: 6.96
hNaV1.2
  pIC50: 6.76
hNaV1.5
  pIC50: 6.76
Male CD-1 mice; 3 mg/kg p.o., 30 min before test
  latency to seizures following bilateral transauricular stimulation: significantly increased
Male CD-1 mice; Compound 1 10 mg/kg
  mice that did not exhibit tonic seizures: 11 of 12
Male CD-1 mice; Compound 1 0.3-10 mg/kg po
  protection (increase in latency) against MES-induced tonic hindlimb seizures, dose-response: dose-dependent increases in latency; also recorded: dose-dependent protection
Male CD-1 mice; mouse MES, read-out: Efficacy (MES) ED50, increasing latency to tonic extension seizures
  ED50: 2 mg/kg
[1]; 10 mg/kg p.o.
  protection from audiogenic seizures: complete protection
[1]; 1, 3, 10 mg/kg p.o., 1 hour prior to testing
  inhibition of audiogenic seizures: dose dependent inhibition
[1]; Scn8a N1768D DEE mouse model
  protection from seizures (FIG. 14B): completely block seizures
[2]; 10 mg/kg p.o., 60 min before PTZ 100 mg/kg s.c.
  efficacy in KCNC1 R320H PTZ seizure model: highly efficacious
[2]; Kcnc1 DEE mouse model, PTZ
  protection from hindlimb extension (FIG. 14D): robust anticonvulsant activity
Healthy participants; 90 mg, Part A
  tolerability in healthy adults: well tolerated
Healthy participants; Part A
  TEAEs mild in severity: 71%
  TEAEs moderate: 29%
  TEAEs severe: 0%
  number of TEAEs: 35
Healthy participants; Part A (n=30 enrolled)
  participants with TEAEs: 13
Healthy participants; Part A, 90 mg QD vs placebo
  TEAEs mild or moderate: 100%
Healthy participants; Part B
  review of ALT/AST increases and rhabdomyolysis, causal association: did not identify a causal association
Healthy participants; Part B, OXC + 120 mg Compound 1 vs OXC alone
  TEAEs mild or moderate: 96%
Healthy participants; Part B, both arms
  TEAEs mild in severity: 51%
  TEAEs moderate: 45%
  TEAEs severe: 4%
  number of TEAEs: 74
Healthy participants; Part B, both arms (n=18 enrolled)
  participants with TEAEs: 16
Healthy participants; Parts A and B
  safety findings in vital signs, physical exams, ECGs, C-SSRS: no clinically significant safety findings
[3]
  Compound 1 exposures on Day 1 (after single dose): above therapeutic range; also recorded: above predicted therapeutic levels
  exposure after 28 days of once daily dosing and auto-titration: approaching steady-state; also recorded: approaches steady state
[4]
  time predicted to achieve 90% steady state: about 6 weeks
